The structures appear in SMILES notation.

From US9763445B2, “Safened herbicidal compositions comprising a pyridine carboxylic acid herbicide” (Dow AgroSciences, LLC, priority 2014, dated 2017) come the findings set out here.

For experiment [1], the system named is pigweed (AMARE). The experiment is described as follows: Postemergence greenhouse trial, % visual injury on pigweed. The class given is in vivo, Amaranthus retroflexus. The settings on record: for % visual injury, observed (Ob): AMARE. The essentials: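 Injury was scored visually (0 = none, 100 = complete kill) 20–22 d after track-sprayer application at 187 L/ha, compared with solvent-sprayed controls. Test plants at the 2–3 true leaf stage; herbicide (g ae/ha) plus cloquintocet-mexyl safener (g ai/ha) in crop-oil-containing spray; expected mixture response by Colby.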

Experiment [2] concerns nutsedge (CYPES). The experiment is described as follows: Postemergence greenhouse trial, % visual injury on nutsedge. Format: in vivo, Cyperus esculentus. The conditions noted are these: CYPES. The method, then:
(§1) Seeds of the desired test plant species were planted in Sun Gro MetroMix® 306 planting mixture, which typically has a pH of 6.0 to 6.8 and an organic matter content of about 30 percent, in plastic pots with a surface area of 103.2 square centimeters (cm^2). When required to ensure good germination and healthy plants, a fungicide treatment and/or other chemical or physical treatment was applied. The plants were grown for 7-36 days (d) in a greenhouse with an approximate 14-hour (h) photoperiod which was maintained at about 23° C. during the day and 22° C. during the night. Nutrients and water were added on a regular basis and supplemental lighting was provided with overhead metal halide 1000-Watt lamps as necessary. The plants were employed for testing when they reached the second or third true leaf stage.
(§2) Weighed amounts of technical material were dissolved in a volume of 97:3 volume per volume (v/v) acetone/dimethyl sulfoxide (DMSO) to stock solutions. […] The concentrated stock solutions were diluted with an aqueous mixture of 1.5% v/v of Agri-dex crop oil concentrate to provide the appropriate application rates. Compound requirements are based upon a 12 milliliter (mL) application volume at a rate of 187 liters per hectare (L/ha). Stocks solutions of the safeners were prepared following the same procedure. Spray solutions of the safeners and experimental compound mixtures were prepared by adding the stock solutions to the appropriate amount of dilution solution to form a 12 mL spray solution in two-way combinations. Formulated compounds were applied to the plant material with an overhead Mandel track sprayer equipped with 8002E nozzles calibrated to deliver 187 L/ha over an application area of 0.503 square meters (m^2) at a spray height of 18 inches (43 centimeters (cm)) above average plant canopy. Control plants were sprayed in the same manner with the solvent blank. All herbicide application (component a) rates are in g ae/ha and all safener (component b) rates are in g ai/ha.
(§3) The treated plants and control plants were placed in a greenhouse as described above and watered by sub-irrigation to prevent wash-off of the test compounds. After 20-22 d, the condition of the test plants as compared with that of the control plants was determined visually and scored on a scale of 0 to 100 percent where 0 corresponds to no injury and 100 corresponds to complete kill. The condition of the test plants was compared with that of the control plants as determined visually and scored on a scale of 0 to 100 percent, where 0 corresponds to no injury and 100 corresponds to complete kill. Colby's equation was used to determine the herbicidal effects expected from the mixtures.
(§4) The safener cloquintocet-mexyl was combined with compound 1, compound 2, compound 4, compound 5, and compound 6, and applied to corn/maize (ZEAMX) and spring wheat (TRZAS) and the phytotoxicity of the herbicidal compositions was measured. In addition, the efficacy of the herbicidal composition on velvetleaf (ABUTH, Abutilon theophrasti), pigweed (AMARE, Amaranthus retroflexus), winter rape (BRSNW, Brassica napus), lambsquarters (CHEAL, Chenopodium album), thistle (CIRAR, Cirsium arvense), nutsedge (CYPES, Cyperus esculentus), poinsettia (EPHHL, Euphorbia heterophylla), wild buckwheat (POLCO, Polygonum convolvulus), giant foxtail (SETFA, Setaria faberi), and chickweed (STEME, Stellaria media) was evaluated. […]
The safener cloquintocet-acid and a number of agriculturally acceptable esters and salts (-mexyl, -dimethylammonium salt and -triethylammonium salt) were combined in varying ratios with compound 1 and applied to spring wheat (TRZAS), winter wheat (TRZAW), and spring barley (HORVS), and the phytotoxicity of the herbicidal compositions was measured. […]

Experiment [3] deals with common sunflower (HELAN). In words: Postemergence greenhouse trial, % visual injury on common sunflower. Format: in vivo, Helianthus annuus. The protocol:
as §1, §2, §3
(§5) The safener cloquintocet-acid and a number of agriculturally acceptable esters and salts (-mexyl, -dimethylammonium salt and -triethylammonium salt) were combined in varying ratios with compound 1 and applied to spring wheat (TRZAS), winter wheat (TRZAW), and spring barley (HORVS), and the phytotoxicity of the herbicidal compositions was measured. In addition, the efficacy of the herbicidal composition on pigweed (AMARE, Amaranthus retroflexus), nutsedge (CYPES, Cyperus esculentus), common sunflower (HELAN, Helianthus annuus), and common sorghum (SORVU, Sorghum vulgare).

For experiment [4], the system named is winter wheat (TRZAW). The experiment is described as follows: Postemergence greenhouse trial, % visual injury on winter wheat. The class given is in vivo, Triticum aestivum. The settings on record: TRZAW. The method, then: as §1, §2, §3
(§6) The safener cloquintocet-mexyl was combined with compound 1, compound 2, compound 3, compound 7, compound 8, compound 9, compound 10, compound 11, compound 12, compound 13, compound 14, compound 15, compound 16, compound 17, compound 18, compound 19, and compound 20, and applied to spring wheat (TRZAS), winter wheat (TRZAW), and spring barley (HORVS) and the phytotoxicity of the herbicidal compositions was measured. […]

The subject of experiment [5] is corn/maize (ZEAMX). In words: Postemergence greenhouse trial, % visual injury on corn/maize. The class given is in vivo, Zea mays. The settings on record: for % visual injury, observed (Ob): ZEAMX. The method, then: as §1, §2, §3, §4
Experiment [6] has as its system common sorghum (SORVU). In words: Postemergence greenhouse trial, % visual injury on common sorghum. The class given is in vivo, Sorghum vulgare. The settings on record: SORVU. The protocol:
as §1, §2
as §3, with “mixtures. […]” for “mixtures.”
as §5

The subject of experiment [7] is velvetleaf (ABUTH). The experiment is described as follows: Postemergence greenhouse trial, % visual injury on velvetleaf. The conditions noted are these: alone, 35 g/ha. The class given is in vivo, Abutilon theophrasti. The method, then: as §1, §2, §3
(§7) The safener cloquintocet-mexyl was combined with compound 1, compound 2, compound 4, compound 5, and compound 6, and applied to corn/maize (ZEAMX) and spring wheat (TRZAS) and the phytotoxicity of the herbicidal compositions was measured. In addition, the efficacy of the herbicidal composition on velvetleaf (ABUTH, Abutilon theophrasti), pigweed (AMARE, Amaranthus retroflexus), winter rape (BRSNW, Brassica napus), lambsquarters (CHEAL, Chenopodium album), thistle (CIRAR, Cirsium arvense), nutsedge (CYPES, Cyperus esculentus), poinsettia (EPHHL, Euphorbia heterophylla), wild buckwheat (POLCO, Polygonum convolvulus), giant foxtail (SETFA, Setaria faberi), and chickweed (STEME, Stellaria media) was evaluated.
as §6

The subject of experiment [8] is wild buckwheat (POLCO). In words: Postemergence greenhouse trial, % visual injury on wild buckwheat. Format: in vivo, Polygonum convolvulus. The conditions noted are these: alone, 35 g/ha. The method, then:
as §1, §2, §3, §7, §6

Experiment [9] has as its system thistle (CIRAR). In words: Postemergence greenhouse trial, % visual injury on thistle. Format: in vivo, Cirsium arvense. The settings on record: Cirsium arvense, post-emergence; alone, 35 g/ha; read-out: % visual injury, Ob. The method, then: as §1, §2, §3, §4
Experiment [10] deals with lambsquarters (CHEAL). In words: Postemergence greenhouse trial, % visual injury on lambsquarters. The conditions noted are these: Chenopodium album, post-emergence; alone, 35 g/ha; read-out: % visual injury, Ob. The class given is in vivo, Chenopodium album. The protocol:
as §1, §2, §3, §7, §6

Experiment [11] relates to winter rape (BRSNW). The experiment is described as follows: Postemergence greenhouse trial, % visual injury on winter rape. The class given is in vivo, Brassica napus. The conditions noted are these: Brassica napus, post-emergence; alone, 35 g/ha; read-out: % visual injury, Ob. In outline:
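Visual injury, 0 (none) to 100 (complete kill), rated 20-22 d after overhead track-sprayer application at 187 L/ha; Colby's equation gave expected mixture responses. Herbicide (g ae/ha) and cloquintocet-mexyl safener (g ai/ha) diluted in aqueous 1.5% v/v Agri-dex, applied to weeds at 2–3 true leaves.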

For experiment [12], the system named is spring wheat (TRZAS). In words: Postemergence greenhouse trial, % visual injury on spring wheat. The class given is in vivo, Triticum aestivum. The settings on record: alone, 35 g/ha. The method, then:
as §1, §2, §3, §7, §6

Experiment [13] has as its system chickweed (STEME). The experiment is described as follows: Postemergence greenhouse trial, % visual injury on chickweed. The class given is in vivo, Stellaria media. The conditions noted are these: alone, 35 g/ha. The method, then:
as §1, §2, §3, §4

For the molecule `O=C(O)COc1ccc(Cl)c2cccnc12` [CQC-acid], the “% visual injury, observed (Ob)” value in [1] (safener alone 2.5 g/ha), in [1] (safener alone 5 g/ha), in experiment [1] (safener alone 10 g/ha), in experiment [1] (safener alone 20 g/ha), in experiment [2] (safener alone 2.5 g/ha) and in experiment [2] (safener alone 5 g/ha) was 0% in each case. Also, the “% visual injury, observed (Ob)” value in experiment [2] (safener alone 10 g/ha), in experiment [2] (safener alone 20 g/ha), in [3] (safener alone 2.5 g/ha), in [3] (safener alone 5 g/ha), in experiment [3] (safener alone 10 g/ha) and in experiment [3] (safener alone 20 g/ha) was 0% each time. Further, the “% visual injury, observed (Ob)” value in [4] (safener alone 2.5 g/ha), in experiment [4] (safener alone 5 g/ha), in [4] (safener alone 10 g/ha), in experiment [4] (safener alone 20 g/ha), in experiment [5] (safener alone 2.5 g/ha) and in [5] (safener alone 5 g/ha) was 0% throughout. Moreover, the “% visual injury, observed (Ob)” value in experiment [5] (safener alone 10 g/ha), in [5] (safener alone 20 g/ha), in [6] (safener alone 2.5 g/ha), in experiment [6] (safener alone 5 g/ha), in experiment [6] (safener alone 10 g/ha) and in experiment [6] (safener alone 20 g/ha) was 0% each time.

`COC(=O)c1nc(-c2ccc3ccn(C(=O)C(C)C)c3c2F)c(F)c(N)c1Cl` [compound 4]: the “% visual injury, Ob” value was 80% in [7]; 100% in [8]; 35% in experiment [5] (alone, 35 g/ha); 40% in experiment [12]; 93% in [13]. Moreover, the pest or weed control at 35 g/ha is 100% in experiment [1] (Amaranthus retroflexus, post-emergence, alone, 35 g/ha, read-out: % visual injury, Ob); 75% in experiment [9]; 97% in experiment [10]. Also, in experiment [11], the plant injury at 35 g/ha was found to be 97%.
